One may read the IC50 as the concentration needed to halve the response being measured.

Data set [1] concerns the target recombinant full-length human hydroxyacid oxidase 1 (HAO1), the equivalents of hGOX (Homo sapiens (Human), UniProt Q9UJM8). In words: In-vitro human glycolate oxidase (hGOX) assay (Amplex red fluorescence). In kind it is biochemical. Conditions: 6 nM recombinant human GO, 85 μM glycolate, 10 min preincubation. Put shortly: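 Activity was read as Amplex Red fluorescence (560/590 nm), with 50 μM reagent added after a 10 min room-temperature incubation. The enzyme, full-length human HAO1, was in pH 7.4 HEPES buffer containing KCl, NaCl, MgCl2 and 0.01% Triton X-100.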

Data set [2] has as its system alanine-glyoxylate aminotransferase (AGXT) knockout mice. Put plainly: In vivo efficacy in Agxt−/− mouse model of primary hyperoxaluria 1 (urine oxalate and glycolate). How it is done:
The in-vivo activity of test compounds was evaluated using alanine-glyoxylate aminotransferase (AGXT) knockout mice from Jackson Laboratory (Bar Harbor, Me.), as reported by Martin-Higueras et al., Molecular Therapy, vol. 24 no. 4, 719-725, 2016. Ten to 15-week-old male AGXT knock-out mice (Agxt−/−) were used to assess the in-vivo activity of test compounds on urinary oxalate and glycolate.
Male Agxt−/− mice were housed under standard conditions (five animals per cage) and allowed free access to food and water. Upon study initiation, animals were treated with test compounds by oral gavage formulated in 20% (2-hydroxypropyl)-β-cyclodextrin (10 μL/g). […]
Urine oxalate was measured using a commercially available clinical oxalate oxidase assay (Trinity Biotech, Wicklow, Ireland) following the manufacturer's instructions.
Plasma and urine glycolate were determined by methods described in Dutta et al., “Inhibition of Glycolate Oxidase with Dicer-substrate siRNA Reduces Calcium Oxalate Deposition in a Mouse Model of Primary Hyperoxaluria Type 1.” Mol Ther., 24(4) 770-778 (2016) using liquid chromatography combined with mass spectrometry detection (LC/MS) on a triple-quadrupole instrument by electrospray ionization and multiple reaction monitoring. […] A two-step protein precipitation determined plasma glycolate. […]

For data set [3], the target named is glycolate oxidase (GOX) in HepaRG-CAR cells (Homo sapiens (Human), UniProt Q9UJM8). Put plainly: HepaRG-CAR cell-based assay for quantitation of glycolate oxidase inhibition (cellular glycolate flux, GC-MS).
Data set [4] in a line: In-vivo pharmacokinetic evaluation (exposure, AUC fold-over Example 1). Conditions: male CD-1 mice, 10 mg/kg oral gavage in 20% (2-Hydroxypropyl)-β-cyclodextrin, plasma at 0.5, 2 and 6 hours post-dose; AUC expressed as fold-over Example 1. How it is done:
In-vivo exposure of test compounds was determined in 5-6 week old male CD-1 mice. Mice (n=2/compound) received 10 mg/kg of each compound formulated in 20% (2-Hydroxypropyl)-β-cyclodextrin (10 μL/g) by oral gavage. At 0.5 hours, 2 hours, and 6 hours post-dose, blood samples were collected from the submandibular vein using EDTA as an anticoagulant and stored on ice. Plasma samples were obtained by centrifugation at 4° C. and were analyzed immediately or stored at −20° C. until analysis. Compounds were extracted from mouse plasma with acetonitrile and quantified by LC-MS-MS in the negative ion mode using a standard curve.

glycolate oxidase (GOX) in HepaRG-CAR cells, sequence (Q9UJM8 whole entry): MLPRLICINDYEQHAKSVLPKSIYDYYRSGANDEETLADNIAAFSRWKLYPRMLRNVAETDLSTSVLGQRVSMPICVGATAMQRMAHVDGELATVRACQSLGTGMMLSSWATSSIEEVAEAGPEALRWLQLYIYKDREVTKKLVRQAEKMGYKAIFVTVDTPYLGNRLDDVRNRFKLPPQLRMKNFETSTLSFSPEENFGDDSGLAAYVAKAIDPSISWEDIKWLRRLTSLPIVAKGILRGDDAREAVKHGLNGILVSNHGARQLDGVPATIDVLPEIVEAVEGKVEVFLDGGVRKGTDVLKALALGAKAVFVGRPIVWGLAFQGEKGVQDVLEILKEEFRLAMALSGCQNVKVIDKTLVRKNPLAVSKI
recombinant full-length human hydroxyacid oxidase 1 (HAO1), the equivalents of hGOX, sequence (Q9UJM8 whole entry): as above

For `C#Cc1cccc(Oc2[nH]nnc2C(=O)O)c1` [Example 1, 5-(3-Ethynylphenoxy)-1H-1,2,3-triazole-4-carboxylic Acid], the IC50 in data set [1] is 21 nM; in data set [3] it was 2500 nM. Further, the “inhibition of urine oxalate” value in data set [2] (compound 1 dosed at 10 and 30 mg/kg, vs vehicle-treated control) is “about 30%”. Also, the urine glycolate change entry in data set [2] (compound 1 dosed twice daily at 10 and 30 mg/kg) was “concomitant increase in urine glycolate”. Besides, in data set [4], the “AUC Fold over Ex. 1” value was found to be 1.0.

Values taken from patent US11504367B2, “Compounds and methods for treating oxalate-related diseases” (OxaluRx, Inc., priority 2019, dated 2022).
